“Also recorded” adds a separate entry of the source. Square brackets hold non-standard residues; d marks the D form. Peptide text beside a SMILES is read from it. pS = N[C@@H](COP(=O)(O)O)C(=O)O

The target in one test is T1, TMEM97 (108-176) (Homo sapiens, UniProt Q5BJF2).
T1 construct: Three peptides, TMEM97 (108-176), TMEM97 (108-143) and TMEM97 (144-176), were synthesized; made in house; host or cells: chemical solid-phase synthesis (Fmoc, Wang resin)
As to the kind of experiment: Isothermal titration calorimetry, TMEM97 (108-176). The following applies: ITC. Format: binding. The method, then: Isothermal Titration Calorimetry (ITC). The three synthesized peptides, TMEM97 (108-176), TMEM97 (108-143) and TMEM97 (144-176) were prepared in ITC buffer (10 mM Tris, pH 7.4, 150 mM NaCl, 0.05% polysorbate 20) at 40 μM concentration and placed in the sample cell. All ITC experiments were performed while stirring at 395 rpm, in ITC buffer at 25° C. using a VP-ITC titration microcalorimeter from MicroCal™, LLC (Northampton, Mass.). The microsyringe was loaded with a Histatin 1 solution (500 μM in ITC buffer). All titrations were conducted using an initial injection of 2.5 μL followed by 35 identical injections of 5 μL with a duration of 16 seconds (per injection) and a spacing of 210 seconds between injections. The buffer control titration (Histatin 1 into buffer) signals were subtracted from the experimental data. The collected data were evaluated using NITPIC (NIH), SEDPHAT (NIH), and GUSSI (NIH).
To determine more precisely which segment of TMEM97 is necessary for binding of Hst1, multiple synthetic fragments of TMEM97 were generated (Table 6) and binding to Hst1 was tested using SPR. […] Smaller fragments of the C-terminal of TMEM97 were then constructed to represent the (predicted) luminal (108-143) and cytoplasmic (144-176) exposed segments of the C-terminus of TMEM97 based on modeling experiments previously described. […]
On the technique in general: Isothermal titration calorimetry measures the heat released or taken up as one component is titrated into another.

Test [1] has as its target T2, Synthetic TMEM97 (108-176) (Homo sapiens, UniProt Q5BJF2).
T2 construct: Three peptides, TMEM97 (108-176), TMEM97 (108-143) and TMEM97 (144-176), were synthesized; made in house; host or cells: chemical solid-phase synthesis (Fmoc, Wang resin)
As to the kind of experiment: Surface plasmon resonance, immobilized synthetic TMEM97 (108-176). Format: binding. To be noted: SPR. How it is done:
Surface Plasmon Resonance (SPR). Recombinant full-length TMEM97 (also called MAC30, from HEK293 cells) and GST-TMEM97 (108-176, recombinant GST-C terminal from wheat germ) proteins were purchased from OriGene (Rockville, Md.) and Abnova (Taipei City, Taiwan), respectively. Three peptides, TMEM97 (108-176), TMEM97 (108-143) and TMEM97 (144-176), were synthesized. All proteins and peptides were initially prepared in HBS buffer containing 10 mM HEPES, pH 7.4, 150 mM NaCl, and 0.05% surfactant P20. The CM5 sensor surface was first activated by 1-ethyl-3-(3-dimethylaminopropyl) carbodiimide hydrochloride (EDC)/N-hydroxy succinimide (NHS) mixture using a Biacore T200 or Biacore 8K instrument (GE Healthcare). […] Flow channels 1 and 3 were used as references.
The three synthesized peptides were diluted to 50 μg/mL in 10 mM sodium acetate at pH 4.0 and immobilized to flow channels 2, 3 and 4, respectively, on another sensor chip. The unmodified surfaces on a flow channel 1 were used as a reference control. Histatin solutions with a series of increasing concentrations (0.78-25 μM at 2-fold dilution) were applied to all four channels at a 30 μL/minute flow rate at 25° C. The data were double-referenced with reference channel and zero concentration responses, and reference subtracted sensorgrams were fitted with 1 to 1 Langmuir kinetic model using a Biacore T200 evaluation software V3.0 or Insight evaluation software. The equilibrium dissociation constants ([…]) were determined from two rate constants (KD=kd/ka).
To determine more precisely which segment of TMEM97 is necessary for binding of Hst1, multiple synthetic fragments of TMEM97 were generated (Table 6) and binding to Hst1 was tested using SPR. […] Smaller fragments of the C-terminal of TMEM97 were then constructed to represent the (predicted) luminal (108-143) and cytoplasmic (144-176) exposed segments of the C-terminus of TMEM97 based on modeling experiments previously described. […] SPR results for Hst1 were confirmed using ITC as an orthogonal analytical method.
To determine the region(s) of Hst1 that mediate binding to TMEM97, SPR testing was performed with various Hst1 fragments and either recombinant TMEM97 (GST-tagged, wheat-germ derived, C-terminal fragment TMEM97 (108-176)) or synthesized TMEM97 (TMEM97 (108-176), TMEM97 (108-143) and TMEM97 (144-176)).

Another test deals with NPC1 KD cells. As to the kind of experiment: Filipin staining of cholesterol in NPC1 knockdown cells. Format: cell-based. The following applies: 20 μM or 50 μM. The text has this: Cholesterol. […] Filipin staining, the generally accepted tool for detection of cholesterol deposits in NPC cells (Vanier, et al. (2003) Clin. Genet. 64:269-81), was used to visualize cholesterol in control and NPC1 KD cells. This analysis indicated increased clustering and collection of filipin-stained cholesterol in NPC1 KD cells, consistent with the NPC1 phenotype.

The next test deals with HCE cells. Kind of test: Wound healing in vitro scratch assay. Format: cell-based, human. How it is done:
Transfection/Knock-Down of TMEM97. Sub-confluent monolayers of HCE cells in grown in 35-mm six-well plates were transfected with reaction mixtures composed of 100 pmol of small interfering RNA (siRNA) to TMEM97 (Santa Cruz Biotechnology; Dallas, Tex.) for 48 hours and 5 μL of transfection reagent sold under the tradename LIPOFECTAMINE® 2000 (Invitrogen; Carlsbad, Calif.) in culture medium sold under the tradename OPTI-MEMO media (Gibco Life Technologies; Grand Island, N.Y.). Complexes were incubated for 20 minutes at 24° C. and then added to cells at 37° C. Incubation was continued for 24 to 48 hours at 37° C. in 5% CO2. Knock-down (KD) of TMEM97 was confirmed by western blot analysis using a rabbit anti-TMEM97 antibody (Novus Bio.; Littleton, Colo.).
Wound Healing in vitro Scratch Assay. HCE cells were cultured in a 96-well plate at 5×10^4 (cells/well) seeding density, and were grown to confluence. Subsequently, a straight line scratch mark was made with a multiscratch wound maker (IncuCyte® 96-well WoundMaker Tool, Essen Biosciences; Ann Arbor, Mich.). The cells were then washed twice with PBS to remove cellular debris. […] The wound areas were measured using ImageJ software (ImageJ 1.47v, NIH, Thornwood; Bethesda, Md.). Relative wound closure was calculated by dividing the closure of the treated wound by that of the untreated control wound. […]

T2 sequence (Q5BJF2 108-176): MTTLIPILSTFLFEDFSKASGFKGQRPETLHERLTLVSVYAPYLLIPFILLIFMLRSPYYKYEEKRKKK
T1 sequence (Q5BJF2 108-176): as above

A word on the Kd: it is the concentration at which binding is half-saturated. Low values mean a tighter complex, high ones a looser complex. `CC(C)C[C@H](NC(=O)[C@H](Cc1ccc(O)cc1)NC(=O)[C@H](CC(N)=O)NC(=O)[C@H](CO)NC(=O)CNC(=O)[C@H](Cc1ccc(O)cc1)NC(=O)[C@H](CC(=O)O)NC(=O)CNC(=O)[C@H](Cc1ccc(O)cc1)NC(=O)[C@H](Cc1ccccc1)NC(=O)[C@@H]1CCCN1C(=O)[C@H](Cc1ccccc1)NC(=O)[C@H](CCC(=O)O)NC(=O)[C@H](CCCNC(=N)N)NC(=O)[C@H](Cc1c[nH]cn1)NC(=O)[C@H](CO)NC(=O)[C@H](Cc1c[nH]cn1)NC(=O)[C@H](Cc1c[nH]cn1)NC(=O)[C@H](CCCCN)NC(=O)[C@H](CCC(=O)O)NC(=O)[C@H](Cc1c[nH]cn1)NC(=O)[C@H](Cc1ccccc1)NC(=O)[C@H](CCCCN)NC(=O)[C@H](CCCNC(=N)N)NC(=O)[C@H](CCCNC(=N)N)NC(=O)[C@H](Cc1ccc(O)cc1)NC(=O)CNC(=O)[C@H](Cc1c[nH]cn1)NC(=O)[C@H](Cc1c[nH]cn1)NC(=O)[C@H](CCCNC(=N)N)NC(=O)[C@H](CCCCN)NC(=O)[C@H](CCC(=O)O)NC(=O)[C@H](Cc1c[nH]cn1)NC(=O)[C@H](COP(=O)(O)O)NC(=O)[C@@H](N)CC(=O)O)C(=O)N[C@@H](Cc1ccc(O)cc1)C(=O)N[C@@H](CC(=O)O)C(=O)N[C@@H](CC(N)=O)C(=O)O` [Hst1] (H-D[pS]HEKRHHGYRRKFHEKHHSHREFPFYGDYGSNYLYDN-OH; N-terminus and C-terminus assumed) registered a ΔS on TMEM97 (108-176) of 11.6±3.4 cal/mol K. In addition, the Kd on TMEM97 (108-176) (25° C.) was 890 ± 200 nM; in test [1], 2400 nM. The “% Rmax” value was 38% in test [1] and “(% Rmax = 23%)” in test [1] (listed as Hst1(1-38)). Besides, in the test with NPC1 KD cells, the “cholesterol accumulation (Filipin staining)” value is on record as “reduced cholesterol accumulation”. Further, the “scratch closure / wound healing rate” value with HCE cells (20 or 50 μM, 8 and 16 hours, versus untreated control) is listed as “increases in wound healing rates; also recorded: statistically significant improvement in scratch closure rates”. In addition, the “wound closure response in TMEM97 KD cells” value with HCE cells (siRNA knock-down of TMEM97) is “abolished this responsiveness; also recorded: loss of this response”.

These data come from patent US20230190870A1, “Method for Treating Lysosomal Storage Diseases with Histatin Peptides” (THE BOARD OF TRUSTEES OF THE UNIVERSITY OF ILLINOIS, priority 2020, published 2023).
